Source: paper PMC6333442, “Conserved allosteric pathways for activation of TRPV3 revealed through engineering vanilloid-sensitivity” (eLife, 2019)
“And” between values parts separate entries of the source, which are not always exact repeats. Identical values can stand only once.

What was measured:
TRPV3-5PM = molecular target: T1, TRPV3-5PM (Mus musculus, UniProt Q8K424, A606V/F625L/F656I/F666Y/V587L); format: cell-based
T1 construct: expressed in transfected cells; host or cells: Xenopus laevis oocytes
T1 sequence (Q8K424 1-791 V587L/A606V/F625L/F656I/F666Y): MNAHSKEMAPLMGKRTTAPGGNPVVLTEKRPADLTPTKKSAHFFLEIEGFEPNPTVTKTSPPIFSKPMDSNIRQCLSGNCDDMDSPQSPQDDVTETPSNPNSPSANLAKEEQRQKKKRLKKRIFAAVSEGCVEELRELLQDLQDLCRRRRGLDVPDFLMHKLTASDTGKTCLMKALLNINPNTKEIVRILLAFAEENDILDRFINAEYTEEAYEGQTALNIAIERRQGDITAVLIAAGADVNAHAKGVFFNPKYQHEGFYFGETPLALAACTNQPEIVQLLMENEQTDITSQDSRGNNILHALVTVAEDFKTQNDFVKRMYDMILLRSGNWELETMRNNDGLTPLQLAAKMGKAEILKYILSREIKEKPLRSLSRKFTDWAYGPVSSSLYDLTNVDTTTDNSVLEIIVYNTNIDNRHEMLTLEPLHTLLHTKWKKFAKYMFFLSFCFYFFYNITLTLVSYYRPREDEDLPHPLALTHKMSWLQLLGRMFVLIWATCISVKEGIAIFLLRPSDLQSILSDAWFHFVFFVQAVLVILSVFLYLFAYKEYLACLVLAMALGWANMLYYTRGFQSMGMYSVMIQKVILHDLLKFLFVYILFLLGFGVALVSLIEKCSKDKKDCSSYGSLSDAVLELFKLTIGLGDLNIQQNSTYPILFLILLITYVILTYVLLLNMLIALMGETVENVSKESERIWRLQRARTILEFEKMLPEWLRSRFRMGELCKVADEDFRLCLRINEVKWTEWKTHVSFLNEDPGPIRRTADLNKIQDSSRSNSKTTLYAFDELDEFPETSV
Procedure: All channel constructs were expressed in Xenopus laevis oocytes and studied using the two-electrode voltage clamp technique (TEVC) following 1–4 days of incubation after cRNA injection. The animal care and experimental procedures were performed in accordance with the Guide for the Care and Use of Laboratory Animals and were approved by the Animal Care and Use Committee of the National Institute of Neurological Disorders and Stroke (Animal protocol number 1253–17). Oocytes were removed surgically and incubated with agitation for 1 hr in a solution containing (in mM) 82.5 NaCl, 2.5 KCl, 1 MgCl2, 5 HEPES, pH 7.6 (with NaOH), and collagenase (2 mg/ml; Worthington Biochemical, Lakewood, NJ). Defolliculated oocytes were injected with cRNA for each of the constructs and incubated at 17°C in a solution containing (in mM) 96 NaCl, 2 KCl, 1 MgCl2, 1.8 CaCl2, 5 HEPES, pH 7.6 (with NaOH), and gentamicin (50 μg/ml, GIBCO-BRL, Gaithersburg, MD). Oocyte membrane voltage was controlled using an OC-725C oocyte clamp (Warner Instruments, Hamden, CT). Data were filtered at 1–3 kHz and digitized at 20 kHz using pClamp software (Molecular Devices, Sunnyvale, CA) and a Digidata 1440A digitizer (Axon Instruments). Microelectrode resistances were 0.1–1 MΩ when filled with 3 M KCl. For recording TRP channel currents, the external recording solution contained (in mM) 100 KCl, 10 HEPES, pH 7.6 (with KOH). Experiments were performed at room temperature (~22°C), except as indicated otherwise. […] Current time courses were obtained by stepping membrane voltage every 2 s from a holding potential of 0 mV to either −60 or +60 mV for 100 ms, and plotting the mean steady-state current at the end of each voltage step as a function of total recording time. I-V relations were obtained similarly, but voltage was stepped every 2 s to a different value, in 10 mV increments and starting at −60 mV.

[1] = test system: TRPV3 single point mutants (V587L, F625L, F656I and F666Y); conditions: 2-APB 3 mM, room temperature
Procedure: All channel constructs were expressed in Xenopus laevis oocytes and studied using the two-electrode voltage clamp technique (TEVC) following 1–4 days of incubation after cRNA injection. The animal care and experimental procedures were performed in accordance with the Guide for the Care and Use of Laboratory Animals and were approved by the Animal Care and Use Committee of the National Institute of Neurological Disorders and Stroke (Animal protocol number 1253–17). Oocytes were removed surgically and incubated with agitation for 1 hr in a solution containing (in mM) 82.5 NaCl, 2.5 KCl, 1 MgCl2, 5 HEPES, pH 7.6 (with NaOH), and collagenase (2 mg/ml; Worthington Biochemical, Lakewood, NJ). […]
For temperature-activation experiments, calcium-activated chloride currents were minimized by using calcium-free solution containing 30 µM Caccinh-A01 and recording at negative membrane voltages. Heat stimuli were achieved by passing the external recording solution through glass capillary spirals immersed in a water bath maintained at about 70°C, and recordings were performed during constant perfusion with temperature measured using a thermistor (TA-29, Warner Instruments) located close to the cell. […] The mean I vs T relations were calculated by automatically binning each of the recordings in temperature intervals of 2°C, and averaging a single data point within each interval per cell. […]

TRPV1 = test system: TRPV1; set-up: method as in Zhang et al., 2016; conditions: ref Zhang et al., 2016; cited from earlier work

Structure (SMILES) | increase in the apparent affinity for 2-APB (TRPV3-5PM) | s (slope) of Hill fit, 2-APB concentration-response (TRPV3-5PM) | EC50 (TRPV3-5PM; read-out: apparent affinity (EC50) for activation by 2-APB) [µM] | channel activation (current response) [1] | saturating concentration of RTx (TRPV1) [nM]
NCCOB(c1ccccc1)c1ccccc1 [2-APB, 2-aminoethoxydiphenyl borate] | 20 fold and > 20 fold and ~ 20 fold | 1.32 | 19 ± 2 | strong responses | –
C=C(C)[C@]12C[C@@H](C)[C@@]34O[C@](Cc5ccccc5)(O[C@@H]1[C@@H]3C=C(COC(=O)Cc1ccc(O)c(OC)c1)C[C@]1(O)C(=O)C(C)=C[C@@H]41)O2 [RTx, resiniferatoxin] | – | – | – | – | 100
